Read-outs that look alike come from different tables or passages of the source.
Tests used:
[1] = system: LspPOX, peroxidase from Lyngbya sp. (strain PCC 8106), mature protein amino acids 117-661 of SEQ ID NO: 12; settings: ABTS 0.025 - 5 mM, 6.45 nM peroxidase, 100 µM H2O2, 50 mM sodium acetate buffer pH 5.0, 25 °C (Example 12)
Method: (§1) The assays were performed in triplicates on a TECAN microtiter plate reader in a total of 200 µL. […] The oxidation reaction was read for 30 min at 25 °C.

[2] = system: HydPOXs, HydPOX peroxidase without proregion (amino acids 117 to 659 of SEQ ID NO: 1), SEQ ID NO: 18; settings: ABTS 0.025 - 5 mM, 6.45 nM peroxidase, 100 µM H2O2, 50 mM sodium acetate buffer pH 5.0, 25 °C (Example 12)
Method: as §1

[3] = system: LspPOX, peroxidase from Lyngbya sp. (strain PCC 8106), mature protein amino acids 117-661 of SEQ ID NO: 12; settings: ABTS 0.025 - 10 mM, 10 nM peroxidase, H2O2, 50 mM phosphate buffer pH 6.0, 25 °C (Example 4)
Method: (§2) The reaction in presence of H2O2 can be easily measured on microplate reader.
The oxidation reaction was read for 30 min at 25 °C. […] The concentration of the added H2O2 solution was 200 µM.

[4] = system: LspPOX, peroxidase from Lyngbya sp. (strain PCC 8106), mature protein amino acids 117-661 of SEQ ID NO: 12; settings: ABTS 0.025 - 10 mM, 10 nM peroxidase, 100 µM H2O2, 50 mM phosphate buffer pH 6.0, 25 °C, optimized fitting (Example 4.1)
Method: as §2
The oxidation reaction was read for 30 min at 25 °C.

[5] = system: LspPOX, peroxidase from Lyngbya sp. (strain PCC 8106), mature protein amino acids 117-661 of SEQ ID NO: 12; experiment: Thymol blue assay (halogenation assay), kinetics at 0.1 mM H2O2 (Example 13); assay type: biochemical, Lyngbya sp. PCC 8106; settings: KI 0.03 - 4 mM, 0.1 mM H2O2, 100 µM thymol blue, 1 µg/ml peroxidase
Method: (§3) The bacterial peroxidases (HydPOX, HydPOXs, OkePOXs) were compared to LpoPOX and LspPOX under these modified conditions.
(§4) The enzymatic reactions were performed at room temperature for 30 min in clear flat-bottomed microplate wells containing 200 µl 0.1 M phosphate buffer pH 7.2, 100 µM thymol blue, 1 µg/ml of recombinant bacterial peroxidase (or commercial LpoPOX as defined in SEQ ID NO: 16), H2O2 and a reducing agent such as I^- (general assay setup).
(§5) Kinetic constants were calculated using a nonlinear regression fitting curve (Figure 9A). […] For this reason, K0.5 values are used indicating the substrate concentration at which half maximal velocity/half-saturation is achieved.

[6] = system: HydPOXs, HydPOX peroxidase without proregion (amino acids 117 to 659 of SEQ ID NO: 1), SEQ ID NO: 18; settings: KI 0.03 - 4 mM, 0.1 mM H2O2, 100 µM thymol blue, 1 µg/ml peroxidase, 0.1 M phosphate buffer pH 7.2, room temperature (Example 13)
Method: as §3, §4, §5

[7] = target: T1, LpoPOX, bovine lactoperoxidase, commercial protein, SEQ ID NO: 16 (lacks the propeptide region) (Bos taurus, UniProt P80025); experiment: Thymol blue assay (halogenation assay), kinetics at 0.1 mM H2O2 (Example 13); assay type: biochemical; settings: KI 0.03 - 4 mM, 0.1 mM H2O2, 100 µM thymol blue, 1 µg/ml peroxidase
T1 construct: purchased
Method: as §3, §4, §5

[8] = system: OkePOXs, functional fragment of OkePOX heme peroxidase from Okeania hirsuta (amino acids 117 to 659 of SEQ ID NO: 11), SEQ ID NO: 25 or 27; settings: KI 0.03 - 4 mM, 0.1 mM H2O2, 100 µM thymol blue, 1 µg/ml peroxidase
Method: as §3, §4, §5

[9] = 0.1 M phosphate buffer pH 7.2, room temperature (Example 13)
[10] = 0.1 M phosphate buffer pH 7.2, room temperature, sigmoidal fitting (Example 13), 30 min, read-out: K0.5

SMILES	Km [1] [µM]	kcat [1] [s^1]	kcat [2] [s^1]	Km [3] [µM]	kcat [3]	Km [4] [µM]	kcat [4] [s⁻¹]	kcat [5, 9] [s⁻¹]	kcat/K0.5 [5, 9] [M⁻¹ s⁻¹]	Km [5, 10] [µM]	kcat [6] [s⁻¹]	kcat/K0.5 [6] [M⁻¹ s⁻¹]	kcat [7, 9] [s⁻¹]	kcat/K0.5 [7, 9] [M⁻¹ s⁻¹]	Km [7, 10] [µM]	kcat [8, 9] [s⁻¹]	kcat/K0.5 [8, 9] [M⁻¹ s⁻¹]	Km ([8]; read-out: K0.5, 0.1 M phosphate buffer pH 7.2, room temperature, sigmoidal fitting (Example 13), 30 min) [µM]
CCn1c(=NN=c2sc3cc(S(=O)(=O)O)ccc3n2CC)sc2cc(S(=O)(=O)O)ccc21 [ABTS, 2,2'-azino-bis (3-ethylbenzothiazoline-6-sulfonic acid)]	1090	57	95	237	7,45 s^-1	180	6.3	–	–	–	–	–	–	–	–	–	–	–
[I-].[K+] [KI, potassium iodide]	–	–	–	–	–	–	–	14.7	10600	1390	10.6	85100	16.5	12500	1320	13.7	118600	120

— patent EP4309500B1, “PEROXIDASE BASED BIOCONTROL AGENTS” (Acies Bio d.o.o., priority 2022, dated 2024)
